From patent publication US6432987B1, “Substituted N-benzylindol-3-ylglyoxylic acid derivatives having antitumor action” (Zentaris AG, priority 1999, dated 2002)

Tested on: tubulin
Assay: tubulin polymerization assay
Type: biochemical
Details: result in words only
From the text: It was possible to show the activity of the present compounds in a tubulin polymerization assay.

SMILES: Nc1ccc(Cn2cc(C(=O)C(=O)Nc3ccncc3)c3ccccc32)cc1 [Example D-68838, N-(Pyridin-4-yl)-[1-(4-aminobenzyl)indol-3-yl]glyoxyl-amide]
- inhibition of the polymerization of tubulin: inhibits the polymerization of tubulin
